These results are taken from patent US8703970B2, “Compounds having photochemically removable protecting groups based on an electrocyclic reaction between a chromophore attached via an anilide group to a benzothiophene ring” (Marquette University, priority 2012, dated 2014).

A short description of one data set: Absorption spectra. The data set is classed as physicochemical. The procedure:
(§1) For the ester ε=5600 M^−1 cm^−1, while the acid has ε=4200 M^−1 cm^−1. For preparative photolyses Pyrex-filtered light from a Hanovia medium pressure mercury lamp was used. A sunlamp was also effective at photolysing all of the compounds in the study. Quantum yields were determined at 390 nm using a monochromator for wavelength selection utilizing a high pressure mercury lamp as the light source.
Photoproduct 26 was identified by ^1H NMR spectroscopy and elemental analysis. […] Regioisomer 28 would have shown only four vicinal couplings in the COSY spectrum. […] The compound was obtainable only as a powder, despite repeated attempts to obtain crystals for structure determination using X-ray diffraction.

Data set [1] in a line: Product quantum yield determination for photochemical leaving group expulsion at 390 nm. It counts as physicochemical. The conditions noted are these: for product quantum yield Φ / quantum yield Φ for formation of 27: 390 nm; for product quantum yield Φ: N2 saturated 19% H2O in dioxane containing 100 mM buffer (1.8×10^−3 M for 8; similar conditions for 7), products quantified by NMR; for quantum yield Φ for formation of 27: 2.0×10^−3 M acid in N2 saturated 75% aq buffer in CH3CN. As for the experimental part: as §1
A semi-micro optical bench was used for quantum yield determinations, similar to the apparatus described by Zimmerman.^32 Light from a 200 W high-pressure mercury lamp was passed through an Oriel monochromator, which was set to 390 nm wavelengths. The light was collimated through a lens. A fraction of the light was diverted 90° by a beam splitter to a 10×3.6 cm side quartz cylindrical cell containing an actinometer. The photolysate was contained in a 10×1.8 cm quartz cylindrical cell of 25 mL volume. The concentrations of the reactants were 0.0018-0.0030 M. All quantum yields reported herein were the average of two or more independent runs. Behind the photolysate was mounted a quartz cylindrical cell containing 25 mL of actinometer. Light output was monitored by ferrioxalate actinometery using the splitting ratio technique.
For 7 (LG^−=Cl^−), 8 (LG^−=Cl^−), and 10 (LG^−=Cl^−) 50 mL of water was added to the photolysate, and the diluted photolysate was extracted four times with 30 mL of CH2Cl2. The combined extracts were washed twice with 30 mL water, brine, and concentrated in vacuo. The residue was dissolved in d6-DMSO. DMF was added as a standard for NMR analyses (vide infra). However, for 7 (LG^−=Cl^−) the NMR solvent was CDCl3 and the NMR standard was DMSO.
For 9 (LG^−=Cl^−, PhS^−, HS^−, PhCH2S^−) the photolysate was adjusted to pH 2 by addition of 3 N HCl. The resultant precipitate was collected by suction filtration and washed with 50 mL water. The precipitate was transferred to a flask, and any untransferred precipitate was dissolved in DMSO and combined with the transferred precipitate. The DMSO was evaporated to dryness under vacuum and DMSO-d6 was added along with DMF as a standard for NMR analysis.
Products were analyzed by ^1H NMR spectroscopy using DMF or DMSO as the internal standard and conversions were 12-16%. At the concentrations used most of the incident light would have been absorbed near the front face of the photolysis cell, raising the concern that the photoproducts formed during the photolyses could competitively absorb the incident light, reducing the light absorbed by the reactants. This internal filter effect would depress the observed Φ values below the actual values. In the case of 8 (LG^−=Cl^−) the Φ was thus redetermined at an 18-fold lower concentration of 1.0×10^−4 M of reactant and found to be within experimental error of the value obtained at higher concentration at 14% conversions for duplicate runs. Due to the very low concentrations of the photoproduct 26 formed, it had to be quantified by absorption spectroscopy of the exposed photolysates without any workup. The product absorption at 432 nm was deconvoluted from the tailing absorption of reactant using Origin 8.6 software (OriginLab). After deconvolution, concentrations were obtained from a calibration curve constructed from known mixtures of reactant and product.

Data set [2] in a line: Preparative photolysis with Pyrex-filtered Hanovia medium pressure mercury lamp, products quantified by NMR. It counts as physicochemical. The following applies: for chemical yield of leaving group expulsion / photoproduct formation in preparative photolysis: N2 saturated aqueous 100 mM phosphate buffer (pH 7) in CH3CN, NMR integration. The procedure: as §1
Similarly, preparative photolysis of […] acid 9 (LG^−=Cl^−) in N2 saturated 75% H2O in CH3CN containing 100 mM phosphate buffer (pH 7) gave the single regioisomeric photoproduct 27 in 98% yield by NMR integration, as above for 8 (LG^−=Cl^−). The regiospecificity was again established by 600 MHz ^1H NMR COSY. […] Photolysis of acid 9 (LG^−=PhS^−, HS^−, PhCH2S^−) under the same conditions as 8 (LG^−=Cl^−) also gave photoproduct 27 in 98-100% yields upon expulsion of these thiolate leaving groups. For acid 9 (LG^−=PhCH2S^−) the released benzyl thiol was quantified in photolyses of 4.5×10^−3 M solutions of 35% D2O in CD3CN containing phosphate buffer (as above) contained in NMR tubes. Yields were 96% thiol and 99% of 27 at 100% conversion of reactant by ^1H NMR spectroscopy. Very similar results were found when DMSO-d6 was the photolysis solvent.
The regiospecific formation of 26 or 27 in the preparative photolyses of ester 8 or acids 9 requires the presence of the ester and carboxylic acid substituents attached to the C-6 position of the benzothiophene ring system of the reactants. In contrast, photolyses of the unsubstituted benzothiophene ring system 7 (LG^−=Cl^−) in 16% water containing 100 mM phosphate buffer in CH3CN gave both regioisomeric photoproducts 30 and 31 as a 42:58 mixture, respectively, in 100% yield according to 400 MHz ^1H NMR spectroscopy (Scheme 6).
To determine whether a “heavy atom effect” promoted intersystem crossing of the singlet excited state to the triplet excited state, work focused upon the C-7 bromide of thioxanthone ester 10 (LG^−=Cl^−). Preparative photolysis of ester 10 in N2 saturated 19% H2O in CH3CN containing 100 mM phosphate buffer (pH 7), as above for ester 8 (LG^−=Cl^−), exclusively gave regioisomer 32 in 99% yield, and 33 was not observed by ^1H NMR spectroscopy of the photolysate (Scheme 7).
A 0.010 M solution of 8 (LG^−=Cl^−) in N2 saturated 17% H2O in CH3CN containing 100 mM phosphate buffer at pH 7 was irradiated with a 450 W Hanovia medium pressure mercury lamp with a Pyrex filter for 90 min. The photoproduct was isolated by filtration. The photoproduct was washed with H2O and a small amount of CHCl3 and dried under vacuum. The product was a yellow powder, mp >300° C. […] A COSY spectrum in d6-DMSO was obtained (see Supporting Information).
A 0.010 M solution of 13 (LG^−=Cl^−) in N2 saturated 75% H2O in CH3CN containing 100 mM phosphate buffer at pH 7 was irradiated with a 450 W Hanovia medium pressure mercury lamp with Pyrex filter for 90 min. The photolysate was acidified to pH 2 with conc. HCl to precipitate the photoproduct carboxylic acid 27. The photoproduct was obtained by filtration, washing with H2O, and drying under vacuum, as a yellow powder, mp >300° C.
A 0.010 M solution of 7 (LG^−=Cl^−) in N2 saturated 17% H2O in CH3CN containing 100 mM phosphate buffer at pH 7 was irradiated with a 450 W Hanovia medium pressure mercury lamp with a Pyrex filter for 90 min. The photoproduct was isolated by filtration as a mixture of two isomers, 30, 31. The mixture of product isomers was dissolved in hot DMSO. Solid photoproduct isomer 31 was obtained upon cooling of the hot DMSO and filtration. Photoproduct isomer 31 was washed with water and methanol and dried under vacuum to obtain 31 as floppy powder, mp >300° C. Solid photoproduct isomer 30 was obtained upon addition of water to the above DMSO filtrate by filtration, after washing with water and methanol. The photoproduct isomer 30 was crystallized from CHCl3 to give a yellow crystalline solid, mp 271-273° C. […]

The nature of data set [3]: Photolysis with 120 W sunlamp for 72 h. The data set is classed as physicochemical. The conditions noted are these: gives exclusively product 26 or 27. The procedure: The photolyses of ester 8 (LG^−=Cl^−) and acids 9 (LG^−=Cl^−, PhS^−, HS^−, PhCH2S) were repeated with a 120 W sunlamp for 72 h under otherwise the same conditions described above for the Hanovia runs.

For data set [4] the following is noted: cited from earlier work.
Setting [5] is: 4.5×10^−3 M in 35% D2O in CD3CN containing phosphate buffer, 100% conversion, 1H NMR.

Read-outs that look alike come from different tables or passages of the source.

With “6-methylcarboxylate-[1]benzothiopheno[2,3-c]benzo[a]anthracene-4-methyl-4H-7-thia-4-aza-3,12-dione [compound 26]”, the “ε at long wavelength maximum” value in “Absorption spectra” (432 nm, aq dioxane containing phosphate buffer) was found to be 10300 M⁻¹ cm⁻¹. For the same compound, the “long wavelength absorption maximum” value in the data set “Absorption spectra” (aq dioxane containing phosphate buffer) came to 432 nm.
Turning to `CN(C(=O)c1sc2ccccc2c1Cl)c1ccc2sc3ccccc3c(=O)c2c1` [7 (LG^−=Cl^−), 3-chloro-benzo[b]thiophene-2-carboxylic acid methyl-(9-oxo-9H-thioxanthen-2-yl)amide], in data set [1], the “product quantum yield Φ” value was found to be 0.069. Moreover, the “chemical yield of leaving group expulsion / photoproduct formation in preparative photolysis” value in data set [2] came out at 100%.
What is called melting point is the temperature of the solid-liquid transition. `CN(C(=O)c1sc2cc(C(=O)O)ccc2c1Cl)c1ccc2sc3ccccc3c(=O)c2c1` [9 (LG^−=Cl^−), 3-chloro-2-[methyl-(9-oxo-9H-thioxanthen-2-yl)-carbamoyl]-benzo[b]thiophene-6-carboxylic acid] displayed a melting point of 286 to 287 °C. Also, the “quantum yield Φ for formation of 27” value in data set [1] was found to be 0.034. In addition, in “Absorption spectra” (385 nm, aqueous dioxane or acetonitrile), the “ε at absorption maximum” value worked out at 4200 M⁻¹ cm⁻¹. The absorption maximum in “Absorption spectra” (aqueous dioxane or acetonitrile) turned out to be 385 nm. Besides, in data set [2], the “chemical yield of leaving group expulsion / photoproduct formation in preparative photolysis” value is recorded as 98%. Also, the “leaving group expulsion with sunlamp” value in data set [3] was “essentially quantitatively”.
Regarding `CN(C(=O)c1sc2cc(C(=O)O)ccc2c1S)c1ccc2sc3ccccc3c(=O)c2c1` [9 (LG^−=HS^−), 3-mercapto-2-[methyl-(9-oxo-9H-thioxanthen-2-yl)-carbamoyl]-benzo[b]thiophene-6-carboxylic acid], the melting point lay within 210 to 212 °C. The “quantum yield Φ for formation of 27” value in data set [1] stood at 0.0079. Moreover, the “leaving group expulsion with sunlamp” value in data set [3] is “essentially quantitatively”.
`CN(C(=O)c1sc2cc(C(=O)O)ccc2c1SCc1ccccc1)c1ccc2sc3ccccc3c(=O)c2c1` [9 (LG^−=PhCH2S^−), 3-benzylsulfanyl-2-[methyl-(9-oxo-9H-thioxanthen-2-yl)-carbamoyl]-benzo[b]thiophene-6-carboxylic acid] registered a melting point of 151 to 152 °C. In addition, the “quantum yield Φ for formation of 27” value in data set [1] stood at 0.011. In addition, in data set [2] (setting [5]), the “yield of 27” value amounted to 99% and the “yield of released benzyl thiol” value is listed as 96%. In addition, the “leaving group expulsion with sunlamp” value in data set [3] is “essentially quantitatively”.
`CN(C(=O)c1sc2cc(C(=O)O)ccc2c1Sc1ccccc1)c1ccc2sc3ccccc3c(=O)c2c1` [9 (LG^−=PhS^−), 2-[methyl-(9-oxo-9H-thioxanthen-2-yl)-carbamoyl]-3-phenylsulfanyl-benzo[b]thiophene-6-carboxylic acid] returned a melting point of 278 to 279 °C. Also, the “quantum yield Φ for formation of 27” value in data set [1] is reported as 0.017. The “leaving group expulsion with sunlamp” value in data set [3] is given as “essentially quantitatively”.
Consider `COC(=O)c1ccc2c(Cl)c(C(=O)N(C)c3ccc4sc5ccc(Br)cc5c(=O)c4c3)sc2c1` [10 (LG^−=Cl^−), 2-[(7-bromo-9-oxo-9H-thioxanthen-2-yl)-methyl-carbamoyl]-3-chloro-benzo[b]thiophene-6-carboxylic acid methyl ester], for which the melting point is 237 to 239 °C. In data set [1], the “product quantum yield Φ” value worked out at 0.053. Also, the “quantum yield higher than Φ=0.039 of ester 8 (LG^−=Cl^−)” value in data set [1] (bromo ester 10 vs ester 8) was 38%. For the same compound, the “chemical yield of leaving group expulsion / photoproduct formation in preparative photolysis” value in data set [2] came out at 99%.
As for `O=c1c2ccccc2sc2ccccc12` [thioxanthone], the triplet lifetime in data set [4] (in CH3CN) is 6.7 μs; in data set [4] (polar protic solvent (methanol)), 13.3 μs. Moreover, the triplet yield in data set [4] (nonpolar hydrocarbon solvent (cyclohexane)) is reported as 0.85; in data set [4] (polar, protic solvent (CH3OH)) it was 0.56.
